Experiment [1] addresses T1, histamine H1 receptor (Rattus norvegicus, UniProt P31390).
T1 construct: The tissue source was male Sprague-Dawley rat brain; tissue Rockland Corporation, Gilbertsville, Pa; host or cells: male Sprague-Dawley rat brain membranes
The experiment is described as follows: H1-Receptor Binding Assay (rat brain membranes, [3H]pyrilamine). Particulars: male Sprague-Dawley rat brain membranes, Ki by Cheng-Prusoff, HCl salt of the indicated compound, read-out: H1 Ave Ki. An excerpt:
General Procedure for H1.—Receptor Binding Assay: The procedure used was based on that disclosed in V. T. Tran et al, “Histamine H1 receptors identified in mammalian brain membranes with [H-3]mepyramine”, Proc. Natl. Acad. Sci. U.S.A. 75 (1978) 6290-6294.
I. Tissue preparation protocol for histamine H1 receptor binding assay:
1. The tissue source was male Sprague-Dawley rat brain. These were purchased stripped and frozen (available from Rockland Corporation, Gilbertsville, Pa.). The buffer used was ice-cold 50 mM Tris-HCl, pH 7.5. (The pH was determined at 25° C.)
2. The brains were spread out on plastic wrap on the benchtop and allowed to thaw for 10-15 min. After this, everything was kept ice-cold.
3. Two brains were put in each 50 ml round bottom centrifuge tube and 25 ml of buffer was added. Then they were broken up with a Polytron (from Brinkmann Instruments, Westbury, N.Y.) equipped with a PT-10 tip at setting 6 for 30 sec.
4. The volume in the tube was brought up to 45 ml and mixed and the particulate material was centrifuged at 1000×g (3000 rpm, SS-34 rotor) for 10 min to remove nuclei and unbroken cells.
5. Pellets were discarded and the supernatants were centrifuged 10 min at 50,000×g (20,000 rpm, SS-34 rotor).
6. The high-speed pellets were resuspended in a volume of Tris buffer equal to the original (4 ml), the contents of all tubes were pooled, and a sample was taken for BCA protein assay . The material was aliquotted, 45 ml per round-bottom tube, and the resuspension was recentrifuged. The yield of protein was approximately 20 mg/brain, so there was about 40 mg of protein per tube.
7 . Pellets were frozen at −80° C.
II. H1 Histamine receptor binding assay:
1. FDCL and comparative compounds for assay were independently solubilized at 1 mg/ml DMSO by vortexing, or if necessary by sonication. The first dilution, 100-fold, was made in 50 mM Tris-HCl, pH 7.5, at room temperature. The three or four subsequent ten-fold serial dilutions were made in 1% DMSO/50 mM Tris-HCl, pH 7.5. Drug solutions and assay plates were kept at room temperature during the course of the assay set up.
2. Test compounds were assayed at four or five concentrations: 1, 0.1, 0.01, 0.001, and 0.0001 μg/ml. Twenty μl of drug solution was pipeted into each of three wells.
3. [^3H]Pyrilamine was diluted approximately 2000-fold with ice-cold […] Tris-HCl, pH 7.5 (to a working concentration of 20-25 nM), and put on ice.
4. A frozen tissue pellet was thawed in a 25° C. water bath, resuspended in 50 mM Tris-HCl, pH 7.5, at 1.7-2 mg/ml by brief break-up on the Polytron, and put on ice.
5. Twenty μl of diluted [^3H]pyrilamine was added to each well.
6. One hundred fifty μl of tissue suspension was added to each well.
7. The top of the plate was covered and it was placed in a 25° C. shaking water bath (about 60 oscillations/min) for 30 min..
8. Samples were filtered on a Tomtec Mach 2 harvester (available from Tomtec Corporation, Orange, Conn.) through a GF/B filter mat (from Wallac, Inc., Gaithersburg, Md.) presoaked in 0.3% polyethylenimine. Each sample was thrice washed with ice-cold 50 mM Tris-HCl, pH 7.5 dried 20 sec on the Tomtec, and dried 3-4 min in a microwave oven on a paper towel. The filter was impregnated with MELTILEX brand wax scintillant (from Wallac Corporation) and counted on a Betaplate scintillation counter (from Wallac Corporation).
9. Specific binding was determined as the difference between total and nonspecific binding. […]

The target of experiment [2] is T2, H3 receptors (Cavia porcellus, UniProt Q9JI35).
T2 construct: The source of the H3 receptors in this experiment was guinea pig brain; from tissue; host or cells: guinea pig brain membranes
The experiment is described as follows: H3-Receptor Binding Assay (guinea pig brain membranes, [3H]R-α-methyl histamine or [3H]Nα-methyl histamine). To be noted: HCl salt of the indicated compound, read-out: H3 Ave Ki. The method, then: General Procedure for H3—Receptor Binding Assay
The source of the H3 receptors in this experiment was guinea pig brain. The animals weighed 400-600 g. The brain tissue was homogenized with a solution of 50 mM Tris, pH 7.5. The final concentration of tissue in the homogenization buffer was 10% w/v. The homogenates were centrifuged at 1,000×g for 10 min. in order to remove clumps of tissue and debris. The resulting supernatants were then centrifuged at 50,000×g for 20 min. in order to sediment the membranes, which were next washed three times in homogenization buffer (50,000×g for 20 min. each). The membranes were frozen and stored at −70° C. until needed.
All compounds to be tested were dissolved in DMSO and then diluted into the binding buffer (50 mM Tris, pH 7.5) such that the final concentration was 2 μg/ml with 0.1% DMSO. Membranes were then added (400 μg of protein) to the reaction tubes. The reaction was started by the addition of 3 nM [^3H]R-α-methyl histamine (8.8 Ci/mmol) or 3 nM [^3H]N^α-methyl histamine (80 Ci/mmol) and continued under incubation at 30° C. for 30 min. Bound ligand was separated from unbound ligand by filtration, and the amount of radioactive ligand bound to the membranes was quantitated by liquid scintillation spectrometry. All incubations were performed in duplicate and the standard error was always less than 10%. Compounds that inhibited more than 70% of the specific binding of radioactive ligand to the receptor were serially diluted to determine a Ki (nM). The results are given in the Table 1 for the HCl salt of the indicated compound.

Molecules are shown by their SMILES.

T1 sequence (P31390 whole entry): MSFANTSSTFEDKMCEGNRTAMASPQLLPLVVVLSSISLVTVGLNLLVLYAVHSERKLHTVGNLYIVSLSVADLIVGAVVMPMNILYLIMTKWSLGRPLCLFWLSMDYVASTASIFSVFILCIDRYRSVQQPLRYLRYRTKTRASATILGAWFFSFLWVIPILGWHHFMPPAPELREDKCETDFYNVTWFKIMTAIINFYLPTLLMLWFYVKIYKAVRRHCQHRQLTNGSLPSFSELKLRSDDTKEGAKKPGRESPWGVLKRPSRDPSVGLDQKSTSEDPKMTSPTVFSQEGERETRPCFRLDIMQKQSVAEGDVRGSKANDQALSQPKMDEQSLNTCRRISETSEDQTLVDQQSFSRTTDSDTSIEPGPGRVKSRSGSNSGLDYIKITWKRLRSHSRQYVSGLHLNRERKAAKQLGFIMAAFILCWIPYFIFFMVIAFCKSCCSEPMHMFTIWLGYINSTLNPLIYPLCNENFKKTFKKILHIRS
T2 sequence (Q9JI35 whole entry): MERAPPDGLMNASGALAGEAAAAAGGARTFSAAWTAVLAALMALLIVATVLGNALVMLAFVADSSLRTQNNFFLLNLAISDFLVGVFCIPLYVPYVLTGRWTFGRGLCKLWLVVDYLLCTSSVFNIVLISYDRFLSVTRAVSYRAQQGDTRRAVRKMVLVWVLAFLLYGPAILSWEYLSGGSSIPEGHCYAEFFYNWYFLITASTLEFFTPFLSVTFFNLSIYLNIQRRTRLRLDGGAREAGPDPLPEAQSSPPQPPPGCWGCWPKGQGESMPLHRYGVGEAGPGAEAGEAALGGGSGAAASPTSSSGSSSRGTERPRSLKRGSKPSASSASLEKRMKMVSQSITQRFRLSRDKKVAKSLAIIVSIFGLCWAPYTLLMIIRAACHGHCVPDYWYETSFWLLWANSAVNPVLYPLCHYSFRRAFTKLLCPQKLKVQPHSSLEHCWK

What is called Ki is the equilibrium dissociation constant of an inhibitor or competing ligand from its target. Take `Clc1ccc2c(c1)CCc1cccnc1C2NCCCCc1c[nH]cn1` (centres unmarked): the figures for the Ki in experiment [1] and in experiment [2] were 41 nM and 29 nM, respectively.
For `Clc1ccc2c(c1)CCc1cccnc1C2NCCc1c[nH]cn1` (centres unmarked), the values for the Ki in experiment [1] and in experiment [2] were 144 nM and 70 nM, respectively.
For `Clc1ccc2c(c1)CCc1cccnc1C2NCCCCCc1c[nH]cn1` (centres unmarked), the Ki in experiment [1] stood at 502 nM; in experiment [2] it was 7.5 nM.
Regarding `Clc1ccc2c(c1)CCc1cccnc1C2CCN(CCCc1c[nH]cn1)CCCc1c[nH]cn1` (centres unmarked), the Ki in experiment [1] came to 571 nM; in experiment [2] it was 25 nM.
For `Clc1ccc2c(c1)CCc1cccnc1C2CCNCCCc1c[nH]cn1` (centres unmarked), the Ki in experiment [1] is 40 nM; in experiment [2] it was 37 nM.
As for `Clc1ccc2c(c1)CCc1cccnc1C2CCNCCCCCc1c[nH]cn1` (centres unmarked), in experiment [2], the Ki came to 7 nM.
On to `Clc1ccc2c(c1)CCc1cccnc1C2CCN(CCCCCc1c[nH]cn1)CCCCCc1cnc[nH]1` (centres unmarked), for which the Ki in experiment [2] is 26 nM.
Consider `Clc1ccc2c(c1)CCc1cccnc1C2CCN(CCCCc1c[nH]cn1)CCCCc1c[nH]cn1` (centres unmarked), for which the Ki in experiment [2] is 9 nM.
Turning to `Clc1ccc2c(c1)CCc1cccnc1C2CCNCCCCc1c[nH]cn1` (centres unmarked), in experiment [2], the Ki was 7.5 nM.

The values above are taken from patent publication US6528522B2, “Substituted imidazoles as dual histamine H1 and H3 agonists or antagonists” (Schering Corporation, priority 2000, dated 2003).
